Molecules are shown by their SMILES. The source made the active and inactive calls. No cut-off for these calls is given here.

The nature of assay [1]: Antiproliferative activity against human KB-VIN cells assessed as reduction in cell viability after 72 hrs by SRB assay. The format is functional, cell-based. To be noted: KBVIN. A general note: The SRB assay estimates cell density from bound dye.
The next assay deals with A549. The assay is described as follows: Antiproliferative activity against human A549 cells assessed as reduction in cell viability after 72 hrs by SRB assay. The format is functional, cell-based. Particulars: A549, 72 h.
Assay [2] relates to MDA-MB-231. The assay is described as follows: Antiproliferative activity against human MDA-MB-231 cells assessed as reduction in cell viability after 72 hrs by SRB assay. Format: functional, cell-based. To be noted: MDA-MB-231, 72 h.
The next assay deals with KB. The assay is described as follows: Antiproliferative activity against human KB cells assessed as reduction in cell viability after 72 hrs by SRB assay. Format: functional, cell-based.
The subject of another assay is MCF7. Kind of assay: Antiproliferative activity against human MCF7 cells assessed as reduction in cell viability after 72 hrs by SRB assay. The format is functional, cell-based. To be noted: MCF7, 72 h.
In assay [3] the test system is MDA-MB-231. The assay is described as follows: Cell cycle arrest in human MDA-MB-231 cells assessed as accumulation at G2/M phase incubated for 24 hrs by propidium iodide staining based flow cytometric analysis. The format is functional. In general terms: A flow cytometer gives signals particle by particle.
The target of another assay is Tubulin (Homo sapiens) (UniProt P68371+Q9H4B7+P0DPH7+P68366+Q13509+Q71U36+P04350+Q3ZCM7+P07437+P68363+Q9BQE3+Q6PEY2+Q13885+Q9BVA1+Q9BUF5). The assay is described as follows: Induction of microtubule depolymerization in human MDA-MB-231 cells assessed as spindle formation incubated for 24 hrs by immunofluorescence staining based confocal microscopic analysis. The format is cell-based.

The IC50 is the concentration that gives 50% inhibition. As for `COc1cc2c(c(OC)c1OC)O/C(=C\c1csc3ccccc13)C2=O`, the IC50 in assay [1] worked out at 0.48 µM; with A549 it was 0.59 µM; with MDA-MB-231 [2] it was 0.8 µM; with KB it was 0.61 µM; in the assay with MCF7, 0.75 µM. Besides, the Activity entry in the assay on MDA-MB-231 [3] is “Dose-Dependent Effect”. In addition, the outcome at Tubulin (Homo sapiens) was inactive.

`COc1c(OC(C)C)cc2oc(-n3cncn3)c(-c3csc4ccccc34)c(=O)c2c1OC(C)C`: the IC50 in assay [1] was 5 µM; with A549 it was over 10 µM; with MDA-MB-231 [2], over 10 µM; with KB, over 10 µM; in the assay on MCF7 it was over 10 µM.

In the case of `O=C(/C=C/c1ccccc1)c1csc2ccccc12`, the IC50 in assay [1] is 5.8 µM; in the assay on A549, 9.1 µM; in the assay with MDA-MB-231 [2] it was 6.7 µM; in the assay on KB, 6.3 µM; in the assay on MCF7 it was over 10 µM.

Take `COc1cc2occ(-c3csc4ccccc34)c(=O)c2c(OC)c1OC`: the IC50 in assay [1] turned out to be 0.51 µM; with A549 it was 0.64 µM; with MDA-MB-231 [2] it was 0.82 µM; with KB, 0.82 µM; with MCF7, 0.74 µM. Moreover, the Activity result in the assay on MDA-MB-231 [3] is “Dose-Dependent Effect”. Moreover, the result at Tubulin (Homo sapiens) was inactive.

Consider `COc1ccc(/C=C/C(=O)c2csc3ccccc23)cc1`, for which the IC50 in assay [1] is 8.1 µM; in the assay with A549 it was over 10 µM; in the assay on MDA-MB-231 [2], over 10 µM; with KB, over 10 µM; in the assay with MCF7, over 10 µM.

In the case of `COc1ccc(C(=O)/C=C/c2csc3ccccc23)c(O)c1`, the IC50 in assay [1] worked out at 4.8 µM; in the assay on A549 it was 5.6 µM; in the assay with MDA-MB-231 [2], 7.4 µM; in the assay with KB it was 5.6 µM; in the assay on MCF7, 7.5 µM.

In the case of `COc1ccc(/C=C/C(=O)c2csc3ccccc23)cc1OC`, the IC50 in assay [1] was determined as 4.7 µM; with A549, 5.2 µM; in the assay with MDA-MB-231 [2] it was 6.6 µM; in the assay on KB, 4.9 µM; in the assay with MCF7, 9.4 µM.

For the molecule `O=C(/C=C/c1c[nH]c2ccccc12)c1cc(Cl)ccc1O`, the IC50 in assay [1] was 0.8 µM; in the assay on A549, 0.75 µM; in the assay with MDA-MB-231 [2], 0.99 µM; with KB, 0.91 µM; in the assay on MCF7, 5.7 µM.

Regarding `O=C(/C=C/c1csc2ccccc12)c1c(O)ccc2ccccc12`, the IC50 in assay [1] worked out at 0.48 µM; in the assay with A549 it was 0.58 µM; with MDA-MB-231 [2], 0.8 µM; in the assay on KB, 0.64 µM; in the assay with MCF7 it was 0.89 µM. In the assay with MDA-MB-231 [3], the Activity result was “Dose-Dependent Effect”. Also, the outcome on Tubulin (Homo sapiens) was Active.

As to `CC(C)Oc1ccc(/C=C/C(=O)c2csc3ccccc23)cc1`, the concentration for half-maximal inhibition (IC50) (in assay [1]; in the assay on A549; with MDA-MB-231 [2]; with KB; in the assay with MCF7) was over 10 µM in each case.

Take `O=C(/C=C/c1cc2ccccc2s1)c1cc(Br)ccc1O`: the IC50 (in assay [1]; with A549; in the assay on MDA-MB-231 [2]; in the assay on KB; in the assay with MCF7) was over 10 µM in each case.

With `COc1ccc(/C=C\c2cc(OC)c(OC)c(OC)c2)cc1O`, in the assay on MDA-MB-231 [3], the Activity result is “Dose-Dependent Effect”. For the same molecule, the result on Tubulin (Homo sapiens) was Active.

Consider `COc1c(OC(C)C)cc2occ(-c3csc4ccccc34)c(=O)c2c1OC(C)C`, for which the IC50 in assay [1] is 7.3 µM; in the assay on A549, 8.9 µM; with MDA-MB-231 [2] it was over 10 µM; in the assay with KB it was over 10 µM; in the assay on MCF7, over 10 µM.

Take `COc1c(OC(C)C)cc2occ(-c3ccccc3)c(=O)c2c1OC(C)C`: the IC50 (in assay [1]; in the assay with A549; in the assay on MDA-MB-231 [2]; in the assay on KB; in the assay on MCF7) was over 10 µM throughout.

As for `O=C(/C=C/c1cc2ccccc2s1)c1cc(Cl)ccc1O`, the IC50 (in assay [1]; in the assay with A549; in the assay with MDA-MB-231 [2]; in the assay on KB; in the assay on MCF7) was over 10 µM throughout.

Regarding `COc1c(OC(C)C)cc2c(c1OC(C)C)C(=O)/C(=C/c1csc3ccccc13)O2`, the IC50 (in assay [1]; in the assay with A549; in the assay with MDA-MB-231 [2]; in the assay with KB; in the assay with MCF7) was over 10 µM each time.

On to `O=c1c(-c2ccccc2)coc2ccccc12` [ISOFLAVONE], for which the IC50 (in assay [1]; in the assay with A549; in the assay with MDA-MB-231 [2]; in the assay with KB; with MCF7) was over 10 µM throughout.
